Laboratory results reported in publication PMC9516243, “Design of stapled peptide-based PROTACs for MDM2/MDMX atypical degradation and tumor suppression” (Theranostics, 2022).
pKi: −log10 of the molar value. “And” between values parts separate entries of the source, which are not always exact repeats. Equal values may be shown once.

How the values were obtained:
circular dichroism = conditions: phosphate buffer (PB); pH 7.2; 20 °C; 10-50 uM
[1] = α-Helicity by CD spectroscopy; type: physicochemical; conditions: PB pH 7.2, 10-50 µM peptide, 20°C, calculated from [θ]222
Protocol: Peptides were dissolved in PB (pH = 7.2) to concentrations ranging from 10 to 50 µM. CD spectra were obtained on a Jasco J-715 spectropolarimeter at 20°C. The spectra were collected using a 0.1 cm path length quartz cuvette with the following measurement parameters: wavelength, 185-255 nm; step resolution, 0.1 nm; speed, 20 nm/min; accumulations, 6; bandwidth, 1 nm. The helical content of each peptide was calculated as reported previously.

Pharmacokinetic study = type: in vivo; conditions: mouse, iv, male ICR mice, 1.8 mg/kg single i.v. tail vein, plasma, UPLC-ESI-QqQ-MS, n = 5
Protocol: The peptides (1.8 mg/kg) were individually dosed in mice intravenously via tail vein injection and the blood samples were collected from the orbital venous plexus at 0, 0.5, 1, 2, 4, 6, 10, 24, and 48 h. All blood samples were centrifuged at 3000 rpm for 10 min, and the obtained plasma samples were immediately frozen at -80 °C until use. The standard curve was established as follows: Stock solutions of PMI-HIF1-1 and SPMI-HIF2-1 dissolved in acetonitrile were spiked into control plasma at final concentrations of 4000, 2000, 1000, 500, 250, 125, 62.5, 31.25, 15.625, 7.8125, 3.90625, 1.953125, and 0.9765625 ng/ml. […] Plasma samples (30 μL) were treated with 90 μL acetonitrile for protein precipitation. Then all samples were vortexed for 2 min and centrifuged for 15 min at 13000 rpm and 4°C. The supernatants were analyzed by ultraperformance liquid chromatography-electrospray ionization-tandem triple quadrupole mass spectrometry (UPLC-ESI-QqQ-MS, Shimadzu 8040). The system was equipped with an XBridge BEH C18 column (2.5 μm, 2.1×100 mm; Waters, Milford, MA, USA). The column temperature was set at 35°C. The injection volume was 4 μl. […] The plasma concentration at each time point was calculated from the extracted peak area of the same mass peaks of each peptide using the corresponding standard curve.

α-Chymotrypsin = experiment: Proteolytic stability against chymotrypsin; type: in vitro ADME; conditions: chymotrypsin 5 ng/μl (10 μl) added to 1 ml of 1 mM peptide, PBS 50 mM pH 7.4, 2 mM CaCl2, 25°C, HPLC, within 10 min, read-out: peptide digested within 10 min
Protocol: Peptides were dissolved in PBS (50 mM, pH = 7.4) to a final concentration of 1 mM. α-Chymotrypsin was dissolved in PBS (50 mM, containing 2 mM of CaCl2, pH = 7.4) to a final concentration of 5 ng/μl. Then the peptide solutions (1 ml) were incubated with […] (10 μl) at 25°C. Samples were taken at 0, 5, 30, 60, 90, and 120 min and reactions were quenched with 20 μL of hydrochloric acid (1 M). The solution of the trypsin peptide fragments was monitored by HPLC at different time points to determine the fraction of protease degradation.

^25-109MDM2 = biological target: T1, ^25-109MDM2 (Homo sapiens, UniProt Q00987); experiment: FP-based competitive binding assay; conditions: MDM2 40 nM, fluorescently tagged p53 peptide 20 nM, PBS pH 7.4, 30 min room temperature; mean of three independent measurements
T1 construct: established using ^25-109MDM2, ^24-108MDMX
Protocol: (§1) An FP-based competitive or binding assay was established using ^25-109MDM2, ^24-108MDMX, and a fluorescently tagged p53-derived peptide as previously described. [34]-[36] For dose-dependent competitive binding experiments, MDM2 or MDMX protein (40 nM) was first incubated with TAMRA-p53 peptide (20 nM) in PBS (pH 7.4) on a Costar 96-well plate, to which a serially diluted solution of test peptide was added to a final volume of 125 μL. After 30 min of incubation at room temperature, the FP values were measured at λex = 530 nm and λem = 580 nm on a Tecan Infinite M1000 plate reader. For binding experiments, FITC-labeled SPMI-HIF2-1 (20 nM) was incubated with different concentrations of MDM2, MDMX, and VHL proteins. Curve fitting was performed using GraphPad Prism software, and Ki values were calculated as described previously. Three replicates and three independent experiments were performed.

^24-108MDMX = biological target: T2, ^24-108MDMX (Homo sapiens, UniProt O15151); experiment: FP-based competitive binding assay; conditions: MDMX 40 nM, fluorescently tagged p53 peptide 20 nM, PBS pH 7.4, 30 min room temperature; mean of three independent measurements
T2 construct: ^24-108MDMX, and a fluorescently tagged p53-derived peptide
T2 sequence (O15151 24-108): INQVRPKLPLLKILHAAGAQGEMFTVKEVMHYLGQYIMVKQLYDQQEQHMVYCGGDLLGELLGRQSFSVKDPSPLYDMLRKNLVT
Protocol: as §1

HCT116 p53^-/- cells = experiment: Cell viability assay (CCK-8); type: cell-based, human; conditions: CCK-8, 72 h incubation, absorbance 450 nm; read-out: IC50 (μM) HCT116 p53^-/-
Protocol: (§2) The human colon carcinoma cell line HCT116 p53^+/+ was obtained from the Cell Bank of the Chinese Academy of Sciences (Shanghai, China). HCT116 p53^-/- cells were generously provided by Prof. Vogelstein of Johns Hopkins University. Both cell lines were cultured in McCoy's 5A medium (Gibco, USA) containing 10% FBS, 100 units/ml penicillin, and 100 μg/ml streptomycin at 37 °C in a humidified incubator containing 5% CO2. Cell viability was measured using a Cell Counting Kit-8 (CCK-8) (Dojindo, Kumamoto, Japan) according to the manufacturer's instructions. In brief, the cells (5 × 10^3 cells/well in […] medium) were cultured for 24 h in 96-well microplates in a humidified 5% CO2 incubator at 37 °C and then treated with varying concentrations of compounds or 0.1% DMSO vehicle control.

HCT116 p53^+/+ cells = experiment: Cell viability assay (CCK-8); type: cell-based, human; conditions: CCK-8, 72 h incubation, absorbance 450 nm; read-out: IC50 (μM) HCT116 p53^+/+
Protocol: as §2

CC(=O)N[C@H](C(=O)N[C@@H](CO)C(=O)N[C@@H](Cc1ccccc1)C(=O)N[C@@H](C)C(=O)N[C@@H](CCC(=O)O)C(=O)N[C@@H](Cc1ccc(O)cc1)C(=O)N[C@@H](Cc1c[nH]c2ccccc12)C(=O)N[C@@H](C)C(=O)N[C@@H](CC(C)C)C(=O)N[C@@H](CC(C)C)C(=O)N[C@@H](CO)C(=O)NCCOCC(=O)N[C@@H](CC(C)C)C(=O)N[C@@H](C)C(=O)N1C[C@H](O)C[C@H]1C(=O)N[C@@H](Cc1ccc(O)cc1)C(=O)N[C@@H](CCC(C)C)C(=O)N1CCC[C@H]1C(N)=O)[C@@H](C)O [PMI-HIF1-1]
helicity (circular dichroism): 17% | α-helicity (%) [1]: 17% | Cmax (Pharmacokinetic study; mean): 14700 ng/mL | AUC(0-inf) (Pharmacokinetic study): 8600 ng·h/mL | MRT (Pharmacokinetic study): 0.7 h | half-life (Pharmacokinetic study; read-out: half-life (t1/2) (converted)): 1.3 h | metabolised at 10 min, 1 mM (α-Chymotrypsin): > 80% | pKi (^25-109MDM2): 6.35 | pKi (^24-108MDMX): 6.54 and 6.21 | IC50 (HCT116 p53^-/- cells): > 100 µM | IC50 (HCT116 p53^+/+ cells): > 100 µM
